Measured values: PubChem BioAssay (NCI)
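These data come from cells grown in 96-well plates and exposed to compound for 48 hours at five concentrations. Here, GI50 denotes the concentration required for 50% inhibition of growth. TGI: concentration producing complete growth inhibition.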

Tests used:
Assay in all cases: NCI tumour cell line growth inhibition, 48 h
A498 renal = system: A498 renal
KM12 colon = system: KM12 colon
IGROV1 ovarian = system: IGROV1 ovarian
PC-3 prostate = system: PC-3 prostate
NCI-H226 lung = system: NCI-H226 lung
HOP-62 NSCLC = system: HOP-62 NSCLC
RPMI-8226 leukemia = system: RPMI-8226 leukemia
SNB-75 CNS = system: SNB-75 CNS
SF-268 CNS = system: SF-268 CNS
EKVX NSCLC = system: EKVX NSCLC

Structure (SMILES)	GI50 (A498 renal) [µM]	TGI (A498 renal) [µM]	GI50 (KM12 colon) [nM]	TGI (KM12 colon) [µM]	GI50 (IGROV1 ovarian) [µM]	TGI (IGROV1 ovarian) [µM]	GI50 (PC-3 prostate) [µM]	TGI (PC-3 prostate) [µM]	GI50 (NCI-H226 lung) [µM]	TGI (NCI-H226 lung) [µM]	GI50 (HOP-62 NSCLC) [µM]	TGI (HOP-62 NSCLC) [µM]	GI50 (RPMI-8226 leukemia) [µM]	TGI (RPMI-8226 leukemia) [µM]	GI50 (SNB-75 CNS) [µM]	TGI (SNB-75 CNS) [µM]	GI50 (SF-268 CNS) [µM]	TGI (SF-268 CNS) [µM]	GI50 (EKVX NSCLC) [µM]	TGI (EKVX NSCLC) [µM]
OC(c1cc(C(F)(F)F)nc2c(C(F)(F)F)cccc12)C1CCCCN1 (configuration not stated)	1.81	7.83	1870	3.59	2.21	5.58	2.17	5.88	1.8	3.7	1.84	5.13	3.22	11.5	2.34	11.7	3.57	13.1	2.3	8.63
c1ccc(Nc2ncc(-c3ccccc3)o2)cc1	> 24	> 25	10700	> 25	> 22	> 25	> 23.2	> 25	> 25	> 25	> 25	> 25	> 25	> 25	> 24.1	> 25	> 25	> 25	> 25	> 25
CCCCCCCCCCSC(=N)N (tested in a mixture with another compound)	6.55	19.7	1970	4.12	5.2	18.9	5.01	20.1	18.3	40.1	11.8	27.3	2.53	6.31	1.42	3.43	4.01	17.6	6.89	23.7
C[C@@H]1CC[C@H]2C(C)(C)[C@H]3C[C@@]12CC[C@@]3(C)O		> 100		> 100		> 100		> 100		> 100		> 100		53.6		> 100		> 100		> 100
C=C1C(=O)O[C@H]2[C@H]1CC/C(CNC(=O)c1cc3ccccc3[nH]1)=C\CC[C@@]1(C)O[C@@H]21	3.15	6.69	2080	5	1.32	5.4	2.03	4.78	2.58	10.7	1.86	4.37	1.02	3.88	6.98	21	1.6	3.67	2.11	8.04
c1ccc(-c2n(Cc3ccc4ccccc4n3)cc[n+]2Cc2ccc3ccccc3c2)cc1	1.16	4.79	823	2.42	0.783	2.43	1.31	5.51	1.3	7.33	2.01	6.13	0.288	1.52	0.624	3.15	1.91	5.5	2.33	12.8
COc1ccc2ncnc(Nc3ccc(OCc4ccccc4)cc3)c2c1	2.14	14.1	8670	> 25	6.61	> 22.2	8.54	> 25	8.1	> 25	10.6	> 25	7.58	> 25	9.78	> 25	13.9	> 25	2.25	12.9
COC(=O)c1cc2oc(/C=C3/SC(=S)N(NC(C)=O)C3=O)cc2n1C	10.8	28.1	26400	> 100	23.3	> 100	25.6	68.4	21.5	51.7	21.7	47.3	24	> 100	34.7	> 100	28.4	> 100	11.3	40.5
COc1c2ccccc2c(OC)c2[nH]c(=O)ccc12	2.04	4.75	3110	> 27.5	5.73	> 100	5.53	> 43.7	2.37	7.22	2.01	3.72	12.6	> 100	3.2	> 21.9	9.51	> 100	2.83	> 100
COC1=CC(=O)C(C2(OC(C)C)OC(=O)C(Cl)=C2Cl)=CC1=O (configuration not stated)		> 100		> 100				> 100		> 100		> 100		> 100		> 100		> 100		> 100
CCC(C)SC1SCC2C(=O)N(C)C3(CC3C)C(=O)OCC(NC(=O)c3nc4ccccc4cc3O)C(=O)NC(C)C(=O)N(C)C1C(=O)N(C)C1(CC1C)C(=O)OCC(NC(=O)c1nc3ccccc3cc1O)C(=O)NC(C)C(=O)N2C (configuration not stated)		0.000492	0.0524	0.000397		3.54		0.0049		0.000892		0.00155		0.00233		8.3e-05		0.00516		0.00538
NCCNCCNCCN	> 100	> 100	> 100000	> 100	> 100	> 100	> 100	> 100	> 100	> 100	> 100	> 100			> 100	> 100	> 100	> 100	> 100	> 100
O=C(Nc1cccc(C(F)(F)F)c1)Nc1cccc(C(F)(F)F)c1			444	3.19	0.868	10.3	0.374	12.5	1.01	3.66	1.4	3.64	0.382	5.6	3.49	31.7	2.1	10.9	0.983	7.88
CC(=C(c1ccc(OCCN2CCCCC2)cc1)c1ccc(OCCN2CCCCC2)cc1)c1ccc(Cl)cc1	0.386	0.755	454	0.887	0.432	0.82	0.412	0.825	0.457	0.962	0.439	0.888	0.53	1.19	0.325	0.673	0.436	0.873	0.433	0.857
COc1ccc(C(c2cc(OC)c(OC)c(OC)c2)n2cncn2)cc1O (configuration not stated)	0.324	0.957	418	> 100	0.959	> 100	0.431	> 100	1.43	> 100	0.514	> 100	0.452	> 100			0.649	> 100	2.24	> 100
COC(=O)[C@]12CC[C@@H](C)[C@H](C)[C@@H]1C1=CC[C@@H]3[C@@]4(C)C[C@@H](O)[C@H](O)[C@@](C)(CO)[C@@H]4[C@H](O)C[C@@]3(C)[C@]1(C)CC2	16.6	30.9	12300	26.4	12.4	29.4	3.63	15.6	17.8	45	20.3	42.7	5.18	31.3	12.3	28.1	12.6	27.5	13.4	31.4
C=C(C)C(=O)O[C@@H]1C[C@@]2(C)O[C@@H]2C[C@H](O)/C(C)=C/[C@H]2OC(=O)C(=C)[C@@H]21		> 100		> 100		> 100		> 100		> 100		> 100		> 100		> 100		> 100		> 100
Nc1nc2[nH]cc(CCc3ccc(C(=O)N[C@@H](CCC(=O)O)C(=O)O)cc3)c2c(=O)[nH]1	0.124	> 100		> 100		> 100	> 51.9	> 100		> 100	0.724	> 100	> 65.9	> 100		> 100	0.219	> 100		> 100
CC#Cc1ccc(-c2ccccc2)s1		> 100		> 100		> 100		> 100		> 100						> 100		> 100		> 100
Fc1cc(-c2nnc3n2N=C(c2ccc(Cl)cc2)CS3)c(Cl)cc1Cl	21	42.4	13100	36.4	4.25	> 37.6	16.6	31.6	17.8	40.6	20.1	36.4			7.33	21.9	13.9	33.1	23.5	48.1
O=C(Nc1nn2c(-c3cc(C(F)(F)F)cc(C(F)(F)F)c3)nnc2s1)C1CCCC1	0.255	2.92	575	> 46.2	0.553	> 100	0.603	> 100	1.23	> 100	2.42	> 29.8	0.368	> 25.6	1.43	> 28.2	1.08	> 100	0.366	> 25.2
O=[N+]([O-])c1cc([N+](=O)[O-])c(C(F)(F)F)cc1NN=C(c1ccc(O)cc1)c1ccc(O)cc1	3.18	12.7	2700	7.85	3.79	14.4	3.11	78	4.03	23.7	3.51	35.8	3.71	12.6	3.53	16.8	2.63	7.66	2.75	14.6
CCNC(=O)C#Cc1ccc2c(C(=Nc3ccc(CN(C)C)cc3)c3ccccc3)c(O)[nH]c2c1	0.0274	0.179	32.3	> 10	0.0511	> 3.29	0.238	> 4.79	0.314	> 10	0.109	> 3.76	0.434	3.19	0.75	2.21	1.35	> 9.48	0.47	> 10
NC(N)=NS(=O)(=O)c1ccc(N=Nc2c(O)c(C(=O)O)cc3ccccc23)cc1				> 100		> 100		> 100		> 100		> 100		> 100		> 100		> 100		> 100
Cc1nnc2ccnn2c1C			> 100000	> 100	> 100	> 100	> 100	> 100	> 100	> 100	> 100	> 100	> 100	> 100	> 100	> 100	> 100	> 100		0.962
COc1ccc(CN2C(=O)C(Cl)=C(Nc3cccc(C(F)(F)F)c3)C2=O)cc1	2.61	9.02	7830	25.6			4.61	37.3	2.57	17.4	18.2	> 100	2.38	23.2	11.9	27.3	3.67	16.6	8.34	68.7
C/C=C/[C@@H]1O[C@@H]2COC(=O)C2=C[C@@H]1O			20500	53.2	18.6	> 84	18.7	36.6	17.6	42	23.5	43	2.55	7.18	28.5	54	24.2	63.9	17.5	36.7
